The values that follow come from ChEMBL document CHEMBL1759865, “Synthesis, biological assessment and molecular modeling of 14-aryl-10,11,12,14-tetrahydro-9H-benzo[5,6]chromeno[2,3-b]quinolin-13-amines” (Bioorg Med Chem Lett, 2011).

Active and inactive are the calls of the source. The rule behind the calls is not given here.

A short description of test [1]: Inhibition of […]-induced intracellular Ca2+ uptake in bovine Chromaffin cells at 100 uM. The class given is functional. As to conditions: Bos taurus.
The species entered for test [2] is Bos taurus. The test can be described thus: Inhibition of K(+)-induced intracellular Ca2+ uptake in bovine Chromaffin cells at 100 uM. The test is classed as functional, cell-based.
In test [3] the test system is SH-SY5Y. The test can be described thus: Neuroprotective activity in human SH-SY5Y cells by MTT assay. The test is classed as functional. On the technique in general: Formazan colour is commonly taken as a measure of viable cells.
Test [4] concerns the target Cholinesterase (Equus caballus, UniProt P81908).
Description: Inhibition of horse serum butyrylcholinesterase preincubated with compound for 10 mins using butrylcholine iodide as substrate after 15 mins by spectrophotometric analysis
Test [5] concerns the target T1, Acetylcholinesterase (Electrophorus electricus, UniProt O42275).
Description: Inhibition of Electrophorus electricus acetylcholinesterase preincubated with compound for 10 mins using acetylcholine iodide as substrate after 15 mins by spectrophotometric analysis
Test [6] deals with T2, Acetylcholinesterase (Bos taurus) (UniProt P23795).
T2 sequence (whole entry): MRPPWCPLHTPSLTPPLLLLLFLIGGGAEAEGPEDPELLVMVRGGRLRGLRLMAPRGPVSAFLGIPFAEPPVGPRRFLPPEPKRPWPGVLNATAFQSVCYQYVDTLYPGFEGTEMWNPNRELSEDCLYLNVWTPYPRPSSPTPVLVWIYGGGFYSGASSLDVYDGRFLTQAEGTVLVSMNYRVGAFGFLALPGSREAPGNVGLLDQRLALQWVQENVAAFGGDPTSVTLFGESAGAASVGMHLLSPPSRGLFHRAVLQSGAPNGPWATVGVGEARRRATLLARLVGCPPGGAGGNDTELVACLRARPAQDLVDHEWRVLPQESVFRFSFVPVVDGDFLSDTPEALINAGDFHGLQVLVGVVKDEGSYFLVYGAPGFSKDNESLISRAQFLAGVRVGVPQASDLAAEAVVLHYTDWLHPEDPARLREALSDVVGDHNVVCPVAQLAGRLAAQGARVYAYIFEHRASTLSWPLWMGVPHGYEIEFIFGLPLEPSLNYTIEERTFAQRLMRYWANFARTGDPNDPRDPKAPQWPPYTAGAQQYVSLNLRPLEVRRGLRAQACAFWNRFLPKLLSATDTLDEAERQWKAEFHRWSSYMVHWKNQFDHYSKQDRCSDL
The test can be described thus: Displacement of propidium iodide from peripheral anionic site of bovine erythrocyte AChE at 0.1 to 3 uM after 20 hrs by fluorescence plate reader.

The target in test [7] is Acetylcholinesterase (Electrophorus electricus) (UniProt O42275). Nature of the test: Ratio of compound IC50 to tacrine IC50 for Electrophorus electricus acetylcholinesterase.
Chain of Acetylcholinesterase (Electrophorus electricus) (O42275 24-633 limits assumed): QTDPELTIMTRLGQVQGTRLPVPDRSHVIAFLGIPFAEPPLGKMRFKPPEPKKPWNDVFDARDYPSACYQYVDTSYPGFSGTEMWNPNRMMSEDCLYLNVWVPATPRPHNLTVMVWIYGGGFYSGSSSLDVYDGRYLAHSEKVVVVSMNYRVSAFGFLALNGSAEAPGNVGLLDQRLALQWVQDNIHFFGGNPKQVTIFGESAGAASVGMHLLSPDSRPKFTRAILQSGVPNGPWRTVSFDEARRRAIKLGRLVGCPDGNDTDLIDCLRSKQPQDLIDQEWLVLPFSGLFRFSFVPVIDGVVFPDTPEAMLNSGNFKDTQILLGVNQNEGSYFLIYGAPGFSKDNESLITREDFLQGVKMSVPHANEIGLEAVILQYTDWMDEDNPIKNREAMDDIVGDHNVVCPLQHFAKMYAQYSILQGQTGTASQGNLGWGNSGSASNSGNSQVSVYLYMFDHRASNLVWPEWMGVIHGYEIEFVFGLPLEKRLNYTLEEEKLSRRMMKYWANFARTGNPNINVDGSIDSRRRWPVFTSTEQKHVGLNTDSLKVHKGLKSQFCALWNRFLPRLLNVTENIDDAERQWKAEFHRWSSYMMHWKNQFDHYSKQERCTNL
Test [8] has as its target T1, Acetylcholinesterase. The test can be described thus: Mixed inhibition of Electrophorus electricus acetylcholinesterase using […] substrate by Ellman's method.

Chain of Cholinesterase (P81908 whole entry): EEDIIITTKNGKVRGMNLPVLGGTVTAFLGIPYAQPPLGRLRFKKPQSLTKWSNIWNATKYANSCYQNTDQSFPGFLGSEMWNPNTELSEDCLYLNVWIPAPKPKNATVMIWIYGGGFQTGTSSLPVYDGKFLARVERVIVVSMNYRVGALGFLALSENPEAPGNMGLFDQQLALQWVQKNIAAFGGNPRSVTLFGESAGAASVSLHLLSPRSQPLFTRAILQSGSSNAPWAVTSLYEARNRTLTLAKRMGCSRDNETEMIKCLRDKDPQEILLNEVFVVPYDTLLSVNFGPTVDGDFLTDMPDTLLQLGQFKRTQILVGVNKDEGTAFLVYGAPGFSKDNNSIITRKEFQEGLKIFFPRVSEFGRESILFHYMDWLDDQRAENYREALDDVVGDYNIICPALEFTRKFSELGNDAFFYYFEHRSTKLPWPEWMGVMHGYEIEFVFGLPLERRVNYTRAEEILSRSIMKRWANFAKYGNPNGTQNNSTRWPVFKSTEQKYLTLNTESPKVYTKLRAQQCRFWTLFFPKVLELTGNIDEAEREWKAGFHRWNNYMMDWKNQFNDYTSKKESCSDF
T1 sequence (O42275 whole entry): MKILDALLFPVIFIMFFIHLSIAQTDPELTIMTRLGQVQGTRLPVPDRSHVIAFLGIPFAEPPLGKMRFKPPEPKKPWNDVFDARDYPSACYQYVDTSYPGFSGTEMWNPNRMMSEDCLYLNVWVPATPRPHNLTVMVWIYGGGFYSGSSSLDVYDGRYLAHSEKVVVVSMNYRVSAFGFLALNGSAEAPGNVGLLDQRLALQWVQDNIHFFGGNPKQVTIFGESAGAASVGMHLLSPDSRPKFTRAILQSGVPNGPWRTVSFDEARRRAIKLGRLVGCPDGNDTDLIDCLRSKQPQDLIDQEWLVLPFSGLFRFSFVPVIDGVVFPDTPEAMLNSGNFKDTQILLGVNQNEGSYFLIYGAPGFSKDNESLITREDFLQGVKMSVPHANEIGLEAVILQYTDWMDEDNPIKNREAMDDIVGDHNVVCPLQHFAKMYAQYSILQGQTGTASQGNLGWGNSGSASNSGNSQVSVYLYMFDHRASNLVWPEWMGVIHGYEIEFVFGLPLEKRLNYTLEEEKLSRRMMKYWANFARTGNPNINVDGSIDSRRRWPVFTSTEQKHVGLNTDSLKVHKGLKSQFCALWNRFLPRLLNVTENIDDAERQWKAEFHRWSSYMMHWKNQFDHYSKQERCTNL

In general, inhibition refers to the drop in the measured response relative to a control, in per cent. Consider `CCOC(=O)C1=C(C)Oc2nc3c(c(N)c2C1c1ccc(OC)cc1)CCCC3` (centres undefined), for which, in test [1], the inhibition at 100 µM stood at 90%.

The IC50 is the concentration that inhibits the measured activity by half. A high value points to lower potency. `Cc1ccc(C2c3c(nc4c(c3N)CCCC4)Oc3ccc4ccccc4c32)cc1` (racemic): in test [2], the result was inactive. This compound showed an Activity in test [3] of less than 17%. Moreover, the IC50 is greater than 10 µM in test [4] and 0.043 µM in test [5].

The Ki is the equilibrium dissociation constant of an inhibitor or competing ligand from its target. Lower therefore signals tighter binding. With `Nc1c2c(nc3c1C(c1ccc(O)cc1)c1c(ccc4ccccc14)O3)CCCC2` (racemic), the result in test [2] and in test [6] was inactive. Further, the Activity in test [3] is less than 17%. Further, the values for the IC50 in test [4] and in test [5] were greater than 10 µM and 0.007 µM, respectively. For the same compound, in test [7], the Ratio IC50 turned out to be 4. In test [8], this compound had a Ki of 0.005 µM.

In the case of `COc1ccc(C2c3c(nc4c(c3N)CCCC4)Oc3ccc4ccccc4c32)cc1` (racemic), the result in test [2] was inactive. Also, the Activity in test [3] was less than 17%. Further, the IC50 in test [4] is greater than 10 µM; in test [5], 0.018 µM.

Turning to `COc1cccc(C2c3c(nc4c(c3N)CCCC4)Oc3ccc4ccccc4c32)c1` (racemic), the outcome in test [2] was inactive. Besides, in test [3], the Activity is reported as less than 17%. Besides, the IC50 in test [4] is greater than 10 µM; in test [5], 0.016 µM.

With `COc1ccccc1C1c2c(nc3c(c2N)CCCC3)Oc2ccc3ccccc3c21` (racemic), the outcome in test [2] was inactive. Besides, the Activity in test [3] is less than 17%. Also, the IC50 in test [4] was greater than 10 µM; in test [5], 0.02 µM.

Regarding `COc1cc(C2c3c(nc4c(c3N)CCC4)Oc3ccc4ccccc4c32)ccc1O` (racemic), the result in test [2] was inactive. Moreover, the Activity in test [3] is given as less than 17%. Also, the IC50 in test [4] is greater than 10 µM; in test [5] it was 0.101 µM.

As for `COc1cc(C2c3c(nc4c(c3N)CCCC4)Oc3ccc4ccccc4c32)ccc1O` (racemic), the outcome in test [2] was inactive. The same compound showed an Activity in test [3] of less than 17%. The IC50 was greater than 10 µM in test [4] and 0.028 µM in test [5].

For the compound `COc1ccc(C2c3c(nc4c(c3N)CCCC4)Oc3ccc4ccccc4c32)cc1OC` (racemic), the result in test [2] was inactive. Also, the Activity in test [3] is on record as less than 17%. Further, the IC50 is greater than 10 µM in test [4] and 0.026 µM in test [5].

Consider `COc1cc(C2c3c(nc4c(c3N)CCCC4)Oc3ccc4ccccc4c32)cc(OC)c1OC` (racemic), for which the result in test [2] was inactive. Moreover, in test [3], the Activity is listed as less than 17%. Further, the IC50 in test [4] was greater than 10 µM; in test [5], 0.026 µM.

As for `Nc1c2c(nc3c1C(c1ccc([N+](=O)[O-])cc1)c1c(ccc4ccccc14)O3)CCCC2` (racemic), in test [2], the outcome was inactive. The Activity in test [3] was less than 17%. For the same compound, the figures for the IC50 in test [4] and in test [5] were greater than 10 µM and 0.17 µM, respectively.
